Results reported in PMC7531004, “Discovery of gramicidin A analogues with altered activities by multidimensional screening of a one-bead-one-compound library” (Nature Communications, 2020).
Where a SMILES comes first, the peptide text is derived from it. [ ]: non-standard residue; d: D form. The star is where a group is joined. NHCH2CH2OH = OCCN*; For = O=C*

Key:
[1] = test system: Streptococcus pyogenes SSI-9; assay: Antibacterial activity assay of bead-derived peptides (three concentrations); format: cell-based; parameters: key: +++: inhibition by the 640-fold diluted peptide solution; ++: inhibition by the 160-fold diluted solution; +: inhibition by the 40-fold diluted solution; -: no inhibition; details: S. pyogenes, bead-derived peptide solution, three concentrations
In short: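 First, each peptide stock was diluted 4- and 16-fold in DMSO; next, the three solutions were mixed with S. pyogenes SSI-9 suspension (2 × 10^5 CFU) in cation-adjusted Mueller Hinton Broth plus 5% laked horse blood; finally, plates stood 18 h at 37 °C before checking for grown-cell precipitation.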

[2] = H+/Na+ transport assay of bead-derived peptides (one-point); format: biochemical; parameters: key: relative activity; mean of two control wells = 1.00; details: bead-derived peptide solution, EYPC/EYPG LUVs;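 further: relative to parent gramicidin A activity set to 1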
In short: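 One-point screen: peptide + pyranine-loaded LUVs, 30 min RT with vortexing, 96-well. Read-out is fluorescence intensity scaled as 100 × (Ix – I0)/(Imax – I0). Imax from Triton X-100, I0 from untreated vesicles, and the mean of the two control wells is set to 1.00.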

[3] = cell viability/%
In short: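 Peptide stocks diluted 250× in growth medium; P388 cells 1 × 10^4 cells/mL final; 37 °C, 5% CO2, 92 h. WST-1 + 1-methoxy PMS, 4 h, A415. Output: % viability.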

## CNC(=O)C[C@@H](NC(=O)[C@H](C)NC(=O)[C@H](NC(=O)[C@H](C)NC(=O)CNC(=O)[C@@H](NC=O)C(C)C)C(C)C)C(=O)N[C@H](C(=O)N[C@@H](C(=O)N[C@@H](Cc1c[nH]c2ccccc12)C(=O)N[C@@H](C(=O)N[C@@H](Cc1c[nH]c2ccccc12)C(=O)N[C@H](CC(C)C)C(=O)N[C@@H](Cc1c[nH]c2ccccc12)C(=O)N[C@H](CC(C)C)C(=O)N[C@@H](Cc1c[nH]c2ccccc12)C(=O)NCCO)C(C)C)C(C)C)C(C)C [compound 5211] (For-VGA[dV]A[dD](NHMe)V[dV]W[dV]W[dL]W[dL]W-NHCH2CH2OH)
[1]
  antibacterial activity: -
[2]
  H+/Na+ transport activity normalized against the value of 1 (1.00): 1.05
[3]
  viability: 100%

## CC(C)C[C@@H](NC(=O)[C@H](C)NC(=O)CNC(=O)[C@@H](NC=O)C(C)C)C(=O)N[C@@H](C)C(=O)N[C@@H](C(=O)N[C@H](C(=O)N[C@H](CC(C)C)C(=O)N[C@@H](Cc1c[nH]c2ccccc12)C(=O)N[C@H](CC(C)C)C(=O)N[C@@H](Cc1c[nH]c2ccccc12)C(=O)N[C@@H](C(=O)N[C@@H](Cc1c[nH]c2ccccc12)C(=O)N[C@@H](C(=O)N[C@@H](Cc1c[nH]c2ccccc12)C(=O)NCCO)[C@H](C)O)[C@H](C)O)C(C)C)C(C)C [compound 4328] (For-VGA[dL]A[dV]V[dL]W[dL]W[dT]W[dT]W-NHCH2CH2OH)
[1]
  antibacterial activity: +
[2]
  H+/Na+ transport activity normalized against the value of 1 (1.00): 1.13
[3]
  viability: 100%

## CC(C)C[C@@H](NC(=O)[C@H](C)NC(=O)[C@H](NC(=O)[C@H](C)NC(=O)CNC(=O)[C@@H](NC=O)C(C)C)C(C)C)C(=O)N[C@H](C(=O)N[C@@H](C(=O)N[C@@H](Cc1c[nH]c2ccccc12)C(=O)N[C@H](CC(C)C)C(=O)N[C@@H](Cc1c[nH]c2ccccc12)C(=O)N[C@@H](C(=O)N[C@@H](Cc1c[nH]c2ccccc12)C(=O)N[C@@H](C(=O)N[C@@H](Cc1c[nH]c2ccccc12)C(=O)NCCO)C(C)C)[C@H](C)O)C(C)C)C(C)C [compound 8473] (For-VGA[dV]A[dL]V[dV]W[dL]W[dT]W[dV]W-NHCH2CH2OH)
[1]
  antibacterial activity: -
[2]
  H+/Na+ transport activity normalized against the value of 1 (1.00): 1.01
[3]
  viability: 53.6%

## CNC(=O)C[C@@H](NC(=O)[C@H](Cc1c[nH]c2ccccc12)NC(=O)[C@H](NC(=O)[C@@H](NC(=O)[C@@H](CC(C)C)NC(=O)[C@H](C)NC(=O)[C@@H](CC(C)C)NC(=O)[C@H](C)NC(=O)CNC(=O)[C@@H](NC=O)C(C)C)C(C)C)C(C)C)C(=O)N[C@@H](Cc1c[nH]c2ccccc12)C(=O)N[C@H](CC(C)C)C(=O)N[C@@H](Cc1c[nH]c2ccccc12)C(=O)N[C@@H](C(=O)N[C@@H](Cc1c[nH]c2ccccc12)C(=O)NCCO)C(C)C [compound 3329] (For-VGA[dL]A[dL]V[dV]W[dD](NHMe)W[dL]W[dV]W-NHCH2CH2OH)
[1]
  antibacterial activity: +
[2]
  H+/Na+ transport activity normalized against the value of 1 (1.00): 1.33
[3]
  viability: 100%

## CC(C)C[C@@H](NC(=O)[C@H](C)NC(=O)CNC(=O)[C@@H](NC=O)C(C)C)C(=O)N[C@@H](C)C(=O)N[C@@H](C(=O)N[C@H](C(=O)N[C@H](CC(C)C)C(=O)N[C@@H](Cc1c[nH]c2ccccc12)C(=O)N[C@@H](C(=O)N[C@@H](Cc1c[nH]c2ccccc12)C(=O)N[C@H](CC(C)C)C(=O)N[C@@H](Cc1c[nH]c2ccccc12)C(=O)N[C@@H](C(=O)N[C@@H](Cc1c[nH]c2ccccc12)C(=O)NCCO)[C@H](C)O)[C@H](C)O)C(C)C)C(C)C [compound 4868] (For-VGA[dL]A[dV]V[dL]W[dT]W[dL]W[dT]W-NHCH2CH2OH)
[1]
  antibacterial activity: -
[2]
  H+/Na+ transport activity normalized against the value of 1 (1.00): 1.06
[3]
  viability: 100%

## CC(C)C[C@@H](NC(=O)[C@H](C)NC(=O)CNC(=O)[C@@H](NC=O)C(C)C)C(=O)N[C@@H](C)C(=O)N[C@@H](C(=O)N[C@H](C(=O)N[C@@H](C(=O)N[C@@H](Cc1c[nH]c2ccccc12)C(=O)N[C@H](CC(C)C)C(=O)N[C@@H](Cc1c[nH]c2ccccc12)C(=O)N[C@H](CC(C)C)C(=O)N[C@@H](Cc1c[nH]c2ccccc12)C(=O)N[C@@H](C(=O)N[C@@H](Cc1c[nH]c2ccccc12)C(=O)NCCO)C(C)C)C(C)C)C(C)C)[C@H](C)O [compound 13002] (For-VGA[dL]A[dT]V[dV]W[dL]W[dL]W[dV]W-NHCH2CH2OH)
[1]
  antibacterial activity: -
[2]
  H+/Na+ transport activity normalized against the value of 1 (1.00): 1.33
[3]
  viability: 98.3%

## CC(C)C[C@@H](NC(=O)[C@H](C)NC(=O)CNC(=O)[C@@H](NC=O)C(C)C)C(=O)N[C@@H](C)C(=O)N[C@H](CC(C)C)C(=O)N[C@H](C(=O)N[C@@H](C(=O)N[C@@H](Cc1c[nH]c2ccccc12)C(=O)N[C@@H](C(=O)N[C@@H](Cc1c[nH]c2ccccc12)C(=O)N[C@@H](C(=O)N[C@@H](Cc1c[nH]c2ccccc12)C(=O)N[C@H](CC(C)C)C(=O)N[C@@H](Cc1c[nH]c2ccccc12)C(=O)NCCO)C(C)C)[C@H](C)O)[C@H](C)O)C(C)C [compound 3782] (For-VGA[dL]A[dL]V[dT]W[dT]W[dV]W[dL]W-NHCH2CH2OH)
[1]
  antibacterial activity: -
[2]
  H+/Na+ transport activity normalized against the value of 1 (1.00): 1.12
[3]
  viability: 100%

## CNC(=O)C[C@@H](NC(=O)[C@H](C)NC(=O)[C@@H](CC(C)C)NC(=O)[C@H](C)NC(=O)CNC(=O)[C@@H](NC=O)C(C)C)C(=O)N[C@H](C(=O)N[C@@H](C(=O)N[C@@H](Cc1c[nH]c2ccccc12)C(=O)N[C@@H](C(=O)N[C@@H](Cc1c[nH]c2ccccc12)C(=O)N[C@H](CC(C)C)C(=O)N[C@@H](Cc1c[nH]c2ccccc12)C(=O)N[C@@H](C(=O)N[C@@H](Cc1c[nH]c2ccccc12)C(=O)NCCO)C(C)C)C(C)C)C(C)C)C(C)C [compound 8583] (For-VGA[dL]A[dD](NHMe)V[dV]W[dV]W[dL]W[dV]W-NHCH2CH2OH)
[1]
  antibacterial activity: -
[2]
  H+/Na+ transport activity normalized against the value of 1 (1.00): 1.15
[3]
  viability: 63.4%

## CC(C)C[C@@H](NC(=O)[C@H](C)NC(=O)CNC(=O)[C@@H](NC=O)C(C)C)C(=O)N[C@@H](C)C(=O)N[C@@H](C(=O)N[C@H](C(=O)N[C@H](CC(C)C)C(=O)N[C@@H](Cc1c[nH]c2ccccc12)C(=O)N[C@@H](C(=O)N[C@@H](Cc1c[nH]c2ccccc12)C(=O)N[C@@H](C(=O)N[C@@H](Cc1c[nH]c2ccccc12)C(=O)N[C@H](CC(C)C)C(=O)N[C@@H](Cc1c[nH]c2ccccc12)C(=O)NCCO)C(C)C)[C@H](C)O)C(C)C)C(C)C [compound 2236] (For-VGA[dL]A[dV]V[dL]W[dT]W[dV]W[dL]W-NHCH2CH2OH)
[1]
  antibacterial activity: +
[2]
  H+/Na+ transport activity normalized against the value of 1 (1.00): 1.03
[3]
  viability: 100%

## CC(C)C[C@@H](NC(=O)[C@H](Cc1c[nH]c2ccccc12)NC(=O)[C@@H](CC(C)C)NC(=O)[C@@H](NC(=O)[C@H](NC(=O)[C@H](C)NC(=O)[C@H](NC(=O)[C@H](C)NC(=O)CNC(=O)[C@@H](NC=O)C(C)C)C(C)C)[C@H](C)O)C(C)C)C(=O)N[C@@H](Cc1c[nH]c2ccccc12)C(=O)N[C@H](CC(C)C)C(=O)N[C@@H](Cc1c[nH]c2ccccc12)C(=O)N[C@@H](C(=O)N[C@@H](Cc1c[nH]c2ccccc12)C(=O)NCCO)C(C)C [compound 2495] (For-VGA[dV]A[dT]V[dL]W[dL]W[dL]W[dV]W-NHCH2CH2OH)
[1]
  antibacterial activity: -
[2]
  H+/Na+ transport activity normalized against the value of 1 (1.00): 1.22
[3]
  viability: 100%

## CC(C)C[C@@H](NC(=O)[C@H](C)NC(=O)[C@H](NC(=O)[C@H](C)NC(=O)CNC(=O)[C@@H](NC=O)C(C)C)C(C)C)C(=O)N[C@H](C(=O)N[C@H](CC(C)C)C(=O)N[C@@H](Cc1c[nH]c2ccccc12)C(=O)N[C@@H](C(=O)N[C@@H](Cc1c[nH]c2ccccc12)C(=O)N[C@@H](C(=O)N[C@@H](Cc1c[nH]c2ccccc12)C(=O)N[C@@H](C(=O)N[C@@H](Cc1c[nH]c2ccccc12)C(=O)NCCO)[C@H](C)O)C(C)C)C(C)C)C(C)C [compound 6959] (For-VGA[dV]A[dL]V[dL]W[dV]W[dV]W[dT]W-NHCH2CH2OH)
[1]
  antibacterial activity: +
[2]
  H+/Na+ transport activity normalized against the value of 1 (1.00): 1.06
[3]
  viability: 100%

## CC(C)C[C@@H](NC(=O)[C@@H](NC(=O)[C@H](NC(=O)[C@H](C)NC(=O)[C@H](NC(=O)[C@H](C)NC(=O)CNC(=O)[C@@H](NC=O)C(C)C)C(C)C)C(C)C)C(C)C)C(=O)N[C@@H](Cc1c[nH]c2ccccc12)C(=O)N[C@@H](C(=O)N[C@@H](Cc1c[nH]c2ccccc12)C(=O)N[C@@H](C(=O)N[C@@H](Cc1c[nH]c2ccccc12)C(=O)N[C@@H](C(=O)N[C@@H](Cc1c[nH]c2ccccc12)C(=O)NCCO)[C@H](C)O)C(C)C)C(C)C [compound 7050] (For-VGA[dV]A[dV]V[dL]W[dV]W[dV]W[dT]W-NHCH2CH2OH)
[1]
  antibacterial activity: -
[2]
  H+/Na+ transport activity normalized against the value of 1 (1.00): 1.21
[3]
  viability: 100%

## CC(C)C[C@@H](NC(=O)[C@H](C)NC(=O)CNC(=O)[C@@H](NC=O)C(C)C)C(=O)N[C@@H](C)C(=O)N[C@@H](C(=O)N[C@H](C(=O)N[C@H](CC(C)C)C(=O)N[C@@H](Cc1c[nH]c2ccccc12)C(=O)N[C@@H](C(=O)N[C@@H](Cc1c[nH]c2ccccc12)C(=O)N[C@@H](C(=O)N[C@@H](Cc1c[nH]c2ccccc12)C(=O)N[C@@H](C(=O)N[C@@H](Cc1c[nH]c2ccccc12)C(=O)NCCO)[C@H](C)O)C(C)C)C(C)C)C(C)C)C(C)C [compound 11625] (For-VGA[dL]A[dV]V[dL]W[dV]W[dV]W[dT]W-NHCH2CH2OH)
[1]
  antibacterial activity: -
[2]
  H+/Na+ transport activity normalized against the value of 1 (1.00): 1.08
[3]
  viability: 100%
